Source: patent US8754115B2, “Fungicidal pyrazoles” (E I du Pont de Nemours and Company, priority 2010, dated 2014)
Marks after values point to notes of the source that are not given here.

Assays:
Assay type in all cases: in vivo
[1] = system: Blumeria graminis f. sp. tritici; assay: Test F: preventive spray on wheat seedlings, visual disease rating (wheat powdery mildew)
Description: (§1) General protocol for preparing test suspensions for Tests A-F: the test compounds were first dissolved in acetone in an amount equal to 3% of the final volume and then suspended at the desired concentration (in ppm) in acetone and purified water (50/50 mix by volume) containing 250 ppm of the surfactant Trem® 014 (polyhydric alcohol esters). The resulting test suspensions were then used in Tests A-F. Spraying a 200 ppm test suspension to the point of run-off on the test plants was the equivalent of a rate of 800 g/ha. Unless otherwise indicated, the rating values indicate a 200 ppm test suspension was used. (An asterisk “*” next to the rating value indicates a 40 ppm test suspension was used.)
The test suspension was sprayed to the point of run-off on wheat seedlings. The following day the seedlings were inoculated with a spore dust of Blumeria graminis f. sp. tritici, (also known as Erysiphe graminis f. sp. tritici, the causal agent of wheat powdery mildew) and incubated in a growth chamber at 20° C. for 8 days, after which time visual disease ratings were made.
(§2) Results for Tests A-F are given in Table A. In the Table, a rating of 100 indicates 100% disease control and a rating of 0 indicates no disease control (relative to the controls). A dash (-) indicates no test results. An asterisk “*” next to the rating value indicates a 40 ppm test suspension was used.

Septoria tritici = assay: Test D: preventive spray on wheat seedlings, visual disease rating (wheat leaf blotch)
Description: as §1
(§3) The test suspension was sprayed to the point of run-off on wheat seedlings. The following day the seedlings were inoculated with a spore suspension of Septoria tritici (the causal agent of wheat leaf blotch) and incubated in saturated atmosphere at 24° C. for 48 h, and then moved to a growth chamber at 20° C. for 19 days, after which time visual disease ratings were made.
as §2

Botrytis cinerea = assay: Test A: preventive spray on tomato seedlings, visual disease rating (tomato Botrytis)
Description: as §1
as §3, with “tomato” for “wheat”, “Botrytis cinerea” for “Septoria tritici”, “tomato Botrytis)” for “wheat leaf blotch)”, “20°” for “24°”, “24°” for “20°”, “3” for “19”
as §2

[2] = system: Puccinia recondite f. sp. tritici; assay: Test E2: preventive spray on wheat seedlings, visual disease rating (wheat leaf rust)
Description: as §1
The test suspension was sprayed to the point of run-off on wheat seedlings. The following day the seedlings were inoculated with a spore suspension of Puccinia recondite f. sp. tritici (the causal agent of wheat leaf rust) and incubated in a saturated atmosphere at 20° C. for 24 h, and then moved to a growth chamber at 20° C. for 7 days, after which time visual disease ratings were made.
as §2

[3] = no asterisk: standard test suspension, not 40 ppm
[4] = no asterisk: standard test suspension, not 40 ppm, 100 = 100% disease control, 0 = none
[5] = asterisk: 40 ppm test suspension

Cc1nn(C)c(-c2ccc(F)cc2I)c1C(O)c1ccc(F)cc1Cl (single isomer, unassigned) [compound 103]
Test F rating (% disease control) [1, 3]: 95%
Test D rating (% disease control) (Septoria tritici; [3]): 98%
Test A rating (% disease control) (Botrytis cinerea; [4]): 99%
Test E2 rating (% disease control) [2, 3]: 96%

Cc1nn(C)c(-c2c(Cl)cncc2Cl)c1C(O)c1ccc(F)cc1Cl (stereo not shown) [compound 98]
Test F rating (% disease control) [1, 5]: 100* %
Test D rating (% disease control) (Septoria tritici; [5]): 100* %
Test A rating (% disease control) (Botrytis cinerea; [5]): 94* %
Test E2 rating (% disease control) [2, 5]: 100* %

COc1nn(C)c(-c2c(F)cc(F)cc2F)c1C(O)c1ccccc1F (stereo not shown) [compound 154]
Test F rating (% disease control) [1, 3]: 100%
Test D rating (% disease control) (Septoria tritici; [3]): 100%
Test A rating (% disease control) (Botrytis cinerea; [4]): 100%
Test E2 rating (% disease control) [2, 3]: 100%

Cc1nn(C)c(-c2c(F)cc(Br)cc2F)c1C(=O)c1ccc(F)cc1F [compound 102]
Test F rating (% disease control) [1, 3]: 97%
Test D rating (% disease control) (Septoria tritici; [3]): 0%
Test A rating (% disease control) (Botrytis cinerea; [4]): 0%
Test E2 rating (% disease control) [2, 3]: 55%

COc1nn(C)c(-c2c(F)cccc2F)c1C(O)c1ccc(F)cc1F (stereo not shown) [compound 156]
Test F rating (% disease control) [1, 5]: 99* %
Test D rating (% disease control) (Septoria tritici; [5]): 100* %
Test A rating (% disease control) (Botrytis cinerea; [5]): 100* %
Test E2 rating (% disease control) [2, 5]: 99* %

Cn1nc(Cl)c(C(O)c2ccc(F)cc2Br)c1-c1c(F)cccc1F (stereo not shown) [compound 136]
Test F rating (% disease control) [1, 3]: 100%
Test D rating (% disease control) (Septoria tritici; [3]): 100%
Test A rating (% disease control) (Botrytis cinerea; [4]): 100%
Test E2 rating (% disease control) [2, 3]: 100%

COc1cc(F)c(-c2c(C(O)c3ccc(F)cc3Cl)c(C)nn2C)c(F)c1 (stereo not shown) [compound 171]
Test F rating (% disease control) [1, 5]: 89* %
Test D rating (% disease control) (Septoria tritici; [5]): 100* %
Test A rating (% disease control) (Botrytis cinerea; [5]): 100* %
Test E2 rating (% disease control) [2, 5]: 100* %

Cc1cc(F)ccc1C(O)c1c(C)nn(C)c1-n1ccnc1Cl (stereo not shown) [compound 150]
Test F rating (% disease control) [1, 3]: 0%
Test D rating (% disease control) (Septoria tritici; [3]): 0%
Test A rating (% disease control) (Botrytis cinerea; [4]): 8%
Test E2 rating (% disease control) [2, 3]: 9%

COc1nn(C)c(-c2c(F)cccc2F)c1C(O)c1ccc(F)cc1Cl (stereo not shown) [compound 126]
Test F rating (% disease control) [1, 3]: 100%
Test D rating (% disease control) (Septoria tritici; [3]): 100%
Test A rating (% disease control) (Botrytis cinerea; [4]): 100%
Test E2 rating (% disease control) [2, 3]: 100%

COc1nn(C)c(-c2c(F)cc(F)cc2F)c1C(O)c1ccc(F)cc1Cl (stereo not shown) [compound 152]
Test F rating (% disease control) [1, 5]: 100* %
Test D rating (% disease control) (Septoria tritici; [5]): 100* %
Test A rating (% disease control) (Botrytis cinerea; [5]): 100* %
Test E2 rating (% disease control) [2, 5]: 100* %

Cc1nn(C)c(-c2c(F)cc(C#N)cc2F)c1C(O)c1ccc(F)cc1F (stereo not shown) [compound 112]
Test F rating (% disease control) [1, 3]: 97%
Test D rating (% disease control) (Septoria tritici; [3]): 100%
Test A rating (% disease control) (Botrytis cinerea; [4]): 80%
Test E2 rating (% disease control) [2, 3]: 100%

Cc1nn(C)c(-c2c(F)cncc2F)c1C(O)c1ccc(F)cc1Cl (stereo not shown) [compound 166]
Test F rating (% disease control) [1, 5]: 93* %
Test D rating (% disease control) (Septoria tritici; [5]): 100* %
Test A rating (% disease control) (Botrytis cinerea; [5]): 99* %
Test E2 rating (% disease control) [2, 5]: 99* %

COc1nn(C)c(-c2c(F)cccc2F)c1C(O)c1ccc(F)cc1C (stereo not drawn) [Compound 157, 5-(2,6-difluorophenyl)-α-(4-fluoro-2-methylphenyl)-3-methoxy-1-methyl-1H-pyrazole-4-methanol]
pest or weed control at 40 ppm ([1]; Blumeria graminis, 192 h, asterisk: 40 ppm test suspension): 100%
pest or weed control at 40 ppm (Septoria tritici; Zymoseptoria tritici, 504 h, asterisk: 40 ppm test suspension): 100%
pest or weed control at 40 ppm (Botrytis cinerea; Botrytis cinerea, 120 h, asterisk: 40 ppm test suspension): 100%
pest or weed control at 40 ppm ([2]; 192 h, asterisk: 40 ppm test suspension): 100%

COc1cc(F)c(-c2c(C(O)c3c(F)cc(F)cc3F)c(C)nn2C)c(F)c1 (stereo not shown) [compound 173]
Test F rating (% disease control) [1, 5]: 95* %
Test D rating (% disease control) (Septoria tritici; [5]): 100* %
Test A rating (% disease control) (Botrytis cinerea; [5]): 87* %
Test E2 rating (% disease control) [2, 5]: 100* %

Cc1nn(C)c(-c2c(F)cncc2F)c1C(O)c1ccc(F)cc1F (stereo not shown) [compound 168]
Test F rating (% disease control) [1, 5]: 100* %
Test D rating (% disease control) (Septoria tritici; [5]): 100* %
Test A rating (% disease control) (Botrytis cinerea; [5]): 21* %
Test E2 rating (% disease control) [2, 5]: 88* %

Cc1nn(C)c(-c2ccc(Cl)cc2Cl)c1C(O)c1ccc(F)cc1F (stereo not shown) [compound 97]
Test F rating (% disease control) [1, 3]: 99%
Test D rating (% disease control) (Septoria tritici; [3]): 100%
Test A rating (% disease control) (Botrytis cinerea; [4]): 99%
Test E2 rating (% disease control) [2, 3]: 100%

Cn1nc(Br)c(C(O)c2ccc(Cl)cc2Cl)c1-c1c(F)cccc1F (stereo not shown) [compound 163]
Test F rating (% disease control) [1, 3]: 98%
Test D rating (% disease control) (Septoria tritici; [3]): 100%
Test A rating (% disease control) (Botrytis cinerea; [4]): 100%
Test E2 rating (% disease control) [2, 3]: 100%

Cc1nn(C)c(-c2ccc(Cl)cc2Cl)c1C(O)c1ccc(Cl)cc1F (stereo not shown) [compound 101]
Test F rating (% disease control) [1, 3]: 72%
Test D rating (% disease control) (Septoria tritici; [3]): 100%
Test E2 rating (% disease control) [2, 3]: 99%

Cc1cc(F)ccc1C(O)c1c(C)nn(C)c1-c1c(F)cccc1F (stereo not shown) [compound 129]
Test F rating (% disease control) [1, 3]: 100%
Test D rating (% disease control) (Septoria tritici; [3]): 100%
Test A rating (% disease control) (Botrytis cinerea; [4]): 100%
Test E2 rating (% disease control) [2, 3]: 99%

Cc1nn(C)c(-c2ccc(F)cc2I)c1C(O)c1ccc(F)cc1Cl (single isomer, unassigned) [compound 104]
Test F rating (% disease control) [1, 5]: 72* %
Test D rating (% disease control) (Septoria tritici; [5]): 98* %
Test A rating (% disease control) (Botrytis cinerea; [5]): 0* %
Test E2 rating (% disease control) [2, 5]: 97* %

Cc1cc(C)n(-c2c(C(O)c3ccc(F)cc3F)c(C)nn2C)n1 (stereo not shown) [compound 159]
Test F rating (% disease control) [1, 3]: 0%
Test D rating (% disease control) (Septoria tritici; [3]): 0%
Test A rating (% disease control) (Botrytis cinerea; [4]): 0%
Test E2 rating (% disease control) [2, 3]: 0%

Cc1cc(F)ccc1C(O)c1c(C)nn(C)c1-n1ccnc1C (stereo not shown) [compound 147]
Test F rating (% disease control) [1, 5]: 0* %
Test D rating (% disease control) (Septoria tritici; [5]): 0* %
Test A rating (% disease control) (Botrytis cinerea; [5]): 0* %
Test E2 rating (% disease control) [2, 5]: 17* %

Cc1cc(F)ccc1C(O)c1c(Br)nn(C)c1-c1c(F)cccc1F (stereo not shown) [compound 165]
Test F rating (% disease control) [1, 3]: 100%
Test D rating (% disease control) (Septoria tritici; [3]): 100%
Test A rating (% disease control) (Botrytis cinerea; [4]): 100%
Test E2 rating (% disease control) [2, 3]: 100%

Cn1nc(Br)c(C(O)c2ccc(F)cc2F)c1-c1c(F)cccc1F (stereo not shown) [compound 124]
Test F rating (% disease control) [1, 3]: 100%
Test D rating (% disease control) (Septoria tritici; [3]): 100%
Test A rating (% disease control) (Botrytis cinerea; [4]): 99%
Test E2 rating (% disease control) [2, 3]: 100%

CCOc1nn(C)c(-c2c(F)cccc2F)c1C(O)c1ccc(F)cc1Cl (stereo not shown) [compound 127]
Test F rating (% disease control) [1, 3]: 99%
Test D rating (% disease control) (Septoria tritici; [3]): 100%
Test A rating (% disease control) (Botrytis cinerea; [4]): 76%
Test E2 rating (% disease control) [2, 3]: 91%

COc1ccc(C(O)c2c(OC)nn(C)c2-c2c(F)cccc2F)c(F)c1 (stereo not shown) [compound 161]
Test F rating (% disease control) [1, 5]: 90* %
Test D rating (% disease control) (Septoria tritici; [5]): 100* %
Test A rating (% disease control) (Botrytis cinerea; [5]): 94* %
Test E2 rating (% disease control) [2, 5]: 92* %

Cc1cc(F)ccc1C(O)c1c(Br)nn(C)c1-c1c(F)cccc1Cl (stereo not shown) [compound 149]
Test F rating (% disease control) [1, 3]: 100%
Test D rating (% disease control) (Septoria tritici; [3]): 100%
Test A rating (% disease control) (Botrytis cinerea; [4]): 100%
Test E2 rating (% disease control) [2, 3]: 100%

Cc1nn(C)c(-n2ccnc2Cl)c1C(O)c1ccc(F)cc1F (stereo not shown) [compound 151]
Test F rating (% disease control) [1, 3]: 43%
Test D rating (% disease control) (Septoria tritici; [3]): 0%
Test A rating (% disease control) (Botrytis cinerea; [4]): 16%
Test E2 rating (% disease control) [2, 3]: 99%

Cc1nn(C)c(-c2c(F)cccc2Br)c1C(=O)c1ccc(F)cc1Cl [compound 93]
Test F rating (% disease control) [1, 3]: 100%
Test D rating (% disease control) (Septoria tritici; [3]): 7%
Test A rating (% disease control) (Botrytis cinerea; [4]): 90%
Test E2 rating (% disease control) [2, 3]: 91%

Cn1nc(Cl)c(C(O)c2ccc(F)cc2Cl)c1-c1c(F)cccc1F (stereo not shown) [compound 137]
Test F rating (% disease control) [1, 3]: 100%
Test D rating (% disease control) (Septoria tritici; [3]): 100%
Test A rating (% disease control) (Botrytis cinerea; [4]): 100%
Test E2 rating (% disease control) [2, 3]: 100%

COc1nn(C)c(-c2c(F)cccc2F)c1C(O)c1c(F)ccc(F)c1Cl (stereo not shown) [compound 139]
Test F rating (% disease control) [1, 5]: 96* %
Test D rating (% disease control) (Septoria tritici; [5]): 100* %
Test A rating (% disease control) (Botrytis cinerea; [5]): 83* %
Test E2 rating (% disease control) [2, 5]: 80* %

Cc1nn(C)c(-n2ccnc2C)c1C(O)c1ccc(F)cc1F (stereo not shown) [compound 146]
Test F rating (% disease control) [1, 3]: 0%
Test D rating (% disease control) (Septoria tritici; [3]): 18%
Test A rating (% disease control) (Botrytis cinerea; [4]): 0%
Test E2 rating (% disease control) [2, 3]: 17%

Cc1nn(C)c(-c2ccc(Cl)cc2Cl)c1C(O)c1ccc(F)cc1Cl (stereo not shown) [compound 100]
Test F rating (% disease control) [1, 3]: 99%
Test D rating (% disease control) (Septoria tritici; [3]): 100%
Test E2 rating (% disease control) [2, 3]: 100%
